Laboratory results: ChEMBL document CHEMBL1201862, “PubChem BioAssay data set” (2004)
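Five compound concentrations were applied to cells in 96-well plates for 48 hours; endpoints were derived by simple linear interpolation of the resulting dose-response curve. GI50 = concentration required for 50% inhibition of growth.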 Calls of active or inactive are those of the source. No stated cut-off is given here; in the data, active = GI50 up to about 1.1 µM and inactive = higher.

Tests used:
Assay in all cases: NCI anticancer screen, dose series, 48 h
OVCAR-3 = system: OVCAR-3
OVCAR-4 = system: OVCAR-4
SW-620 = system: SW-620
MDA-N = system: MDA-N
Hs-578T = system: Hs-578T
SNB-75 = system: SNB-75
IGROV-1 = system: IGROV-1
RXF 393 = system: RXF 393
786-0 = system: 786-0
NCI-H522 = system: NCI-H522
UACC-257 = system: UACC-257
CCRF-CEM = system: CCRF-CEM
EKVX = system: EKVX
OVCAR-8 = system: OVCAR-8
DU-145 = system: DU-145
A549 = system: A549
NCI-H460 = system: NCI-H460
Malme-3M = system: Malme-3M
BT-549 = system: BT-549
M14 = system: M14
SK-OV-3 = system: SK-OV-3
NCI-H226 = system: NCI-H226
LOX IMVI = system: LOX IMVI
CAKI-1 = system: CAKI-1
COLO 205 = system: COLO 205
SK-MEL-2 = system: SK-MEL-2
MOLT-4 = system: MOLT-4
SK-MEL-5 = system: SK-MEL-5
HOP-62 = system: HOP-62
SF-539 = system: SF-539
NCI/ADR-RES = system: NCI/ADR-RES
SN12C = system: SN12C
T47D = system: T47D
HCC 2998 = system: HCC 2998
NCI-H23 = system: NCI-H23
RPMI-8226 = system: RPMI-8226
PC-3 = system: PC-3
SF-268 = system: SF-268
HL-60 = system: HL-60
HT-29 = system: HT-29
MDA-MB-435 = system: MDA-MB-435
OVCAR-5 = system: OVCAR-5
HOP-92 = system: HOP-92
UO-31 = system: UO-31
HCT-116 = system: HCT-116
SNB-19 = system: SNB-19
SR = system: SR
SK-MEL-28 = system: SK-MEL-28
HCT-15 = system: HCT-15
K562 = system: K562
KM12 = system: KM12
SF-295 = system: SF-295
MCF7 = system: MCF7
U-251 = system: U-251
TK-10 = system: TK-10
UACC-62 = system: UACC-62
ACHN = system: ACHN
A498 = system: A498
MDA-MB-231 = system: MDA-MB-231

**Q.** `COc1cccc(/N=C/c2cc3cc(Br)ccc3nc2Cl)c1` was tested. Which GI50 (OVCAR-3) did it give?
**A.** Its GI50 is 34.4 µM (inactive).

**Q.** What about the GI50 (OVCAR-4) of the same compound?
**A.** Its GI50 is 0.736 µM (active).

**Q.** What about the GI50 (SW-620) of the same compound?
**A.** The GI50 was 11.8 µM (inactive).

**Q.** What about the GI50 (MDA-N) of the same compound?
**A.** Its GI50 is 13.6 µM (inactive).

**Q.** And the GI50 (Hs-578T)?
**A.** The GI50 was 40.6 µM (inactive).

**Q.** What about the GI50 (SNB-75) of the same compound?
**A.** Its GI50 is 17.1 µM (inactive).

**Q.** And the GI50 (IGROV-1)?
**A.** The GI50 was 12.6 µM (inactive).

**Q.** What about the GI50 (RXF 393) of the same compound?
**A.** Its GI50 is 13.7 µM (inactive).

**Q.** And the GI50 (786-0)?
**A.** The GI50 was 2.91 µM (inactive).

**Q.** And the GI50 (NCI-H522)?
**A.** The GI50 was 8.43 µM (inactive).

**Q.** And the GI50 (UACC-257)?
**A.** Its GI50 is 44.5 µM (inactive).

**Q.** And the GI50 (CCRF-CEM)?
**A.** The GI50 was 4.78 µM (inactive).

**Q.** And the GI50 (EKVX)?
**A.** The GI50 was > 50 µM (inactive).

**Q.** And the GI50 (OVCAR-8)?
**A.** Its GI50 is 2.95 µM (inactive).

**Q.** What about the GI50 (DU-145) of the same compound?
**A.** The GI50 was 48.8 µM (inactive).

**Q.** What about the GI50 (A549) of the same compound?
**A.** The GI50 was > 50 µM (inactive).

**Q.** What about the GI50 (NCI-H460) of the same compound?
**A.** The GI50 was 13.8 µM (inactive).

**Q.** And the GI50 (Malme-3M)?
**A.** Its GI50 is > 50 µM (inactive).

**Q.** What about the GI50 (BT-549) of the same compound?
**A.** Its GI50 is 47 µM (inactive).

**Q.** What about the GI50 (M14) of the same compound?
**A.** Its GI50 is > 50 µM (inactive).

**Q.** And the GI50 (SK-OV-3)?
**A.** The GI50 was 15.2 µM (inactive).

**Q.** And the GI50 (NCI-H226)?
**A.** The GI50 was 5.58 µM (inactive).

**Q.** What about the GI50 (LOX IMVI) of the same compound?
**A.** Its GI50 is 18.9 µM (inactive).

**Q.** And the GI50 (CAKI-1)?
**A.** The GI50 was 7.06 µM (inactive).

**Q.** What about the GI50 (COLO 205) of the same compound?
**A.** The GI50 was > 50 µM (inactive).

**Q.** And the GI50 (SK-MEL-2)?
**A.** Its GI50 is 13.7 µM (inactive).

**Q.** And the GI50 (MOLT-4)?
**A.** Its GI50 is 7.05 µM (inactive).

**Q.** What about the GI50 (SK-MEL-5) of the same compound?
**A.** The GI50 was 36.1 µM (inactive).

**Q.** And the GI50 (HOP-62)?
**A.** Its GI50 is 41.4 µM (inactive).

**Q.** What about the GI50 (SF-539) of the same compound?
**A.** Its GI50 is 13.1 µM (inactive).

**Q.** What about the GI50 (NCI/ADR-RES) of the same compound?
**A.** The GI50 was 17.2 µM (inactive).

**Q.** And the GI50 (SN12C)?
**A.** The GI50 was 15.5 µM (inactive).

**Q.** What about the GI50 (T47D) of the same compound?
**A.** Its GI50 is 10.5 µM (inactive).

**Q.** What about the GI50 (HCC 2998) of the same compound?
**A.** The GI50 was 15 µM (inactive).

**Q.** And the GI50 (NCI-H23)?
**A.** Its GI50 is 22.1 µM (inactive).

**Q.** What about the GI50 (RPMI-8226) of the same compound?
**A.** The GI50 was 2.96 µM (inactive).

**Q.** What about the GI50 (PC-3) of the same compound?
**A.** Its GI50 is 8.67 µM (inactive).

**Q.** And the GI50 (SF-268)?
**A.** The GI50 was 20.1 µM (inactive).

**Q.** And the GI50 (HL-60)?
**A.** The GI50 was 10 µM (inactive).

**Q.** And the GI50 (HT-29)?
**A.** The GI50 was 27 µM (inactive).

**Q.** What about the GI50 (MDA-MB-435) of the same compound?
**A.** Its GI50 is 11.1 µM (inactive).

**Q.** What about the GI50 (OVCAR-5) of the same compound?
**A.** The GI50 was > 50 µM (inactive).

**Q.** What about the GI50 (HOP-92) of the same compound?
**A.** The GI50 was 30.3 µM (inactive).

**Q.** And the GI50 (UO-31)?
**A.** Its GI50 is 12.5 µM (inactive).

**Q.** And the GI50 (HCT-116)?
**A.** Its GI50 is 11.2 µM (inactive).

**Q.** And the GI50 (SNB-19)?
**A.** Its GI50 is > 50 µM (inactive).

**Q.** What about the GI50 (SR) of the same compound?
**A.** Its GI50 is 1.85 µM (inactive).

**Q.** What about the GI50 (SK-MEL-28) of the same compound?
**A.** Its GI50 is > 50 µM (inactive).

**Q.** What about the GI50 (HCT-15) of the same compound?
**A.** Its GI50 is 35.3 µM.

**Q.** What about the GI50 (K562) of the same compound?
**A.** The GI50 was 8.09 µM (inactive).

**Q.** And the GI50 (KM12)?
**A.** The GI50 was 9.75 µM (inactive).

**Q.** And the GI50 (SF-295)?
**A.** The GI50 was 39.4 µM (inactive).

**Q.** What does the source list for `CCCCN(CC)C(=O)C1=C(C)NC(C)=C(C(=O)N(CC)CCCC)C1`?
**A.** GI50 (OVCAR-3): > 100 µM (inactive); GI50 (OVCAR-4): > 100 µM (inactive); GI50 (SW-620): > 100 µM (inactive); GI50 (MDA-N): > 100 µM (inactive); GI50 (SNB-75): 77.1 µM (inactive); GI50 (IGROV-1): 97.7 µM (inactive); GI50 (RXF 393): > 100 µM (inactive); GI50 (786-0): > 100 µM (inactive); GI50 (MCF7): > 100 µM (inactive); GI50 (UACC-257): > 100 µM (inactive); GI50 (EKVX): > 100 µM (inactive); GI50 (OVCAR-8): > 100 µM (inactive); GI50 (DU-145): > 100 µM (inactive); GI50 (A549): > 100 µM (inactive); GI50 (NCI-H460): > 100 µM (inactive); GI50 (BT-549): > 100 µM (inactive); GI50 (M14): > 100 µM (inactive); GI50 (SK-OV-3): > 100 µM (inactive); GI50 (NCI-H226): 88.9 µM (inactive); GI50 (U-251): > 100 µM (inactive); GI50 (LOX IMVI): > 100 µM (inactive); GI50 (CAKI-1): > 100 µM (inactive); GI50 (TK-10): > 100 µM (inactive); GI50 (COLO 205): > 100 µM (inactive); GI50 (SK-MEL-2): > 100 µM (inactive); GI50 (MOLT-4): > 100 µM (inactive); GI50 (SK-MEL-5): > 100 µM (inactive); GI50 (HOP-62): > 100 µM (inactive); GI50 (SF-539): > 100 µM (inactive); GI50 (NCI/ADR-RES): > 100 µM (inactive); GI50 (SN12C): > 100 µM (inactive); GI50 (T47D): 62.1 µM (inactive); GI50 (HCC 2998): > 100 µM (inactive); GI50 (UACC-62): 57.7 µM (inactive); GI50 (NCI-H23): > 100 µM (inactive); GI50 (SF-268): > 100 µM (inactive); GI50 (HL-60): 89.1 µM (inactive); GI50 (HT-29): > 100 µM (inactive); GI50 (MDA-MB-435): 80 µM (inactive); GI50 (ACHN): > 100 µM (inactive); GI50 (OVCAR-5): > 100 µM (inactive); GI50 (HOP-92): > 100 µM (inactive); GI50 (UO-31): > 100 µM (inactive); GI50 (A498): > 100 µM (inactive); GI50 (HCT-116): > 100 µM (inactive); GI50 (SNB-19): > 100 µM (inactive); GI50 (SK-MEL-28): > 100 µM (inactive); GI50 (HCT-15): > 100 µM; GI50 (KM12): > 100 µM (inactive); GI50 (MDA-MB-231): > 100 µM (inactive); GI50 (SF-295): > 100 µM (inactive)

**Q.** What does the source list for `COc1cc(O)c2c(=O)c(OC)c(-c3ccc(OC)c(OC)c3)oc2c1.[Zn+2]`?
**A.** GI50 (MDA-N): > 100 µM (inactive); GI50 (Hs-578T): 2.67 µM (inactive); GI50 (SNB-75): 1.75 µM (inactive); GI50 (RXF 393): 5.81 µM (inactive); GI50 (786-0): 10.4 µM (inactive); GI50 (NCI-H522): 4.38 µM (inactive); GI50 (A549): 53.2 µM (inactive); GI50 (NCI-H460): 17.1 µM (inactive); GI50 (BT-549): 17.8 µM (inactive); GI50 (SK-OV-3): 5.12 µM (inactive); GI50 (NCI-H226): 54.8 µM (inactive); GI50 (CAKI-1): 11.2 µM (inactive); GI50 (TK-10): 66.1 µM (inactive); GI50 (SF-539): 20.8 µM (inactive); GI50 (SN12C): 61.2 µM (inactive); GI50 (RPMI-8226): 57.9 µM (inactive); GI50 (HL-60): > 100 µM (inactive)
